Experimental data as given in patent US20110092476A1, “Bicycloheteroaryl compounds as P2X7 modulators and uses thereof” (Renovis, Inc., priority 2006, published 2011).
Read-outs that look alike come from different tables or passages of the source.

Target: T1, P2X7 receptor (Homo sapiens, UniProt Q99572)
T1 construct: host or cells: THP-1 cells differentiated with LPS and IFN-γ
T1 sequence (Q99572 1-595): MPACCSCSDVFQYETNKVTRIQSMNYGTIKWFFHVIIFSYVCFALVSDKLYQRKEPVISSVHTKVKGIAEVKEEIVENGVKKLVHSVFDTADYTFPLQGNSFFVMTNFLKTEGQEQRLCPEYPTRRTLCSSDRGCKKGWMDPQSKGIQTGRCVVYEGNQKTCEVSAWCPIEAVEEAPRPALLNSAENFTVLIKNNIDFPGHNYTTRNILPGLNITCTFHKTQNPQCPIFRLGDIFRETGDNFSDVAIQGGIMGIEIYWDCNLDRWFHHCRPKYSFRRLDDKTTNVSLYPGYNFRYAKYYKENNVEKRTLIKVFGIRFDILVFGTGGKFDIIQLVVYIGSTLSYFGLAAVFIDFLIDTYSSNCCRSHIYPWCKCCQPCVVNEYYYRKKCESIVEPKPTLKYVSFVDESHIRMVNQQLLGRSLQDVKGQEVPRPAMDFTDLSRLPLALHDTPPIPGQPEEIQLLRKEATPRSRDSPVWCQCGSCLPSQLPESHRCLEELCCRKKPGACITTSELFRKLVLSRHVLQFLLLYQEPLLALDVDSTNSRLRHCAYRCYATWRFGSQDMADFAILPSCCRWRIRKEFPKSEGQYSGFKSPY
Test: IL-1β release assay in differentiated THP-1 cells stimulated with BzATP (Example 9)
Type: cell-based
Conditions: differentiated THP-1 cells, BzATP 250 uM, read-out: IL-1β % Inhib. @ 0.3 or 0.1 uM
Experimental: THP-1 cells (ATCC Cat #285-IF-100) are plated in 96 well plates at a concentration of 200,000 cells per well and allowed to differentiate in RPMI-1640 media (ATCC Cat #30-2001) containing 10% FBS, 100 IU/mL penicillin, 100 ug/mL streptomycin, 100 ng/mL LPS and 100 ng/mL IFN-γ for 16 hours. Following differentiation, the cells are treated for an additional 2 hours in RPMI-1640 media containing 100 IU/mL penicillin, 100 ug/mL streptomycin and fresh LPS at 100 ng/mL. The cells are then pretreated for 30 minutes with the compound of interest at the appropriate concentration in RPMI media containing 100 IU/mL penicillin, 100 ug/mL streptomycin. Following the pretreatment 2′,3′-O-(4-benzoylbenzoyl)-adenosine 5′-triphosphate (Sigma Aldrich Cat #B6396) is added to a final concentration of 250 uM and the cells are incubated for an additional 45 minutes. 30 uL of cell supernatant is then collected and IL-1β levels determined via ELISA (R&D systems Cat. #HSLB50) according to manufacturer's recommendations using the Tecan Safire plate reader. Background adjusted IL-1β levels of drug treated and non-treated cells are used to calculate the percent inhibition.
The compounds set forth in Table 1 were tested for activity in a cellular model as described herein. Specifically, cells were pretreated with differing amounts of the compound under test and released IL-1β determined as in Example 9, above. Measurements were made and IC50 values, presented in Table 2, below, were determined by fitting the data to a four parameter logistic equation using GraphPad Prism software (GraphPad Software, Inc). The equation may be expressed by the following formula:
Y=Bottom+(Top−Bottom)/(1+10̂((Log EC50−X)*HillSlope))
Where X is the logarithm of concentration, Y is the response and Y starts at Bottom and goes to Top with a sigmoid shape.

Row | inhibition at 0.1 µM (0.1 μM compound (symbols *)) [%] | inhibition at 0.3 µM (0.3 μM compound, "+" symbols) [%] | SMILES | also measured
1 | 0 to 25 | – | CC(CO)n1ccc2c(NC(=O)c3cccc4c3OCCO4)cccc2c1=O (stereo not drawn) [Compound 116] | –
2 | – | 26 to 50 | C[C@H](C(N)=O)n1ccc2c(NC(=O)Cc3c(F)cccc3C(F)(F)F)cccc2c1=O [Compound 286] | –
3 | – | > 76 | CC(C)(CO)n1ccc2c(NC(=O)Cc3ccc(F)c(C(F)(F)F)c3)cccc2c1=O [Compound 367] | –
4 | – | 51 to 75 | C[C@@H](CO)n1ccc2c(NC(=O)Cc3ccc(F)c(Cl)c3)cccc2c1=O [Compound 331] | –
5 | – | > 76 | CC(C)(CO)n1ccc2c(NC(=O)Cc3ccc(C(F)(F)F)c(F)c3)cccc2c1=O [Compound 365] | –
6 | 0 to 25 | – | Cc1ccc(C)c(C(=O)Nc2cccc3c(=O)n(C(C)CO)ccc23)c1 (stereo not drawn) [Compound 100] | –
7 | 0 to 25 | – | COc1cccc(CCC(=O)Nc2cccc3c(=O)n(C(C)CO)ccc23)c1 (stereo not drawn) [Compound 91] | –
8 | 0 to 25 | – | CC(CO)n1ccc2c(NC(=O)c3ccccc3Cl)cccc2c1=O (stereo not drawn) [Compound 95] | –
9 | – | 0 to 25 | C[C@H](C(N)=O)n1ccc2c(NC(=O)Cc3ccccc3Cl)cccc2c1=O [Compound 260] | –
10 | 0 to 25 | – | Cc1ccc(Cl)cc1C(=O)Nc1cccc2c(=O)n(C(C)CO)ccc12 (stereo not drawn) [Compound 122] | –
11 | 0 to 25 | – | CCOc1cccc(C(=O)Nc2cccc3c(=O)n(C(C)CO)ccc23)c1 (stereo not drawn) [Compound 93] | –
12 | – | 51 to 75 | O=C(Cc1ccc(Cl)cc1C(F)(F)F)Nc1cccc2c(=O)n(CCO)ccc12 [Compound 229] | –
13 | – | 26 to 50 | C[C@H](C(N)=O)n1ccc2c(NC(=O)Cc3ccccc3F)cccc2c1=O [Compound 294] | –
14 | 0 to 25 | – | CC(O)Cn1ccc2c(NC(=O)c3cc(Cl)ccc3Cl)cccc2c1=O (stereo not drawn) [Compound 138] | –
15 | 0 to 25 | – | CC(CO)n1ccc2c(NC(=O)c3cc4ccccc4o3)cccc2c1=O (stereo not drawn) [Compound 112] | –
16 | – | 51 to 75 | C[C@H](C(=O)Nc1cccc2c(=O)n([C@@H](C)CO)ccc12)c1ccc(Cl)c(Cl)c1 [Compound 326] | –
17 | – | > 76 | C[C@H](C(N)=O)n1ccc2c(NC(=O)Cc3ccc(F)cc3Cl)cccc2c1=O [Compound 291] | –
18 | – | 51 to 75 | C[C@@H](CO)n1ccc2c(NC(=O)Cc3ccc(Cl)cc3F)cccc2c1=O [Compound 328] | –
19 | – | > 76 | C[C@@H](CO)n1ccc2c(NC(=O)Cc3cccc(C(F)(F)F)c3F)cccc2c1=O [Compound 325] | –

Continued, molecule first:

Row | SMILES | inhibition at 0.1 µM (0.1 μM compound (symbols *)) [%] | inhibition at 0.3 µM (0.3 μM compound, "+" symbols) [%] | also measured
20 | COc1ccc(C(=O)Nc2cccc3c(=O)n(CC(C)(C)O)ccc23)cc1C [Compound 227] | – | – | inhibition at 0.1 µM (0.1 μM compound, "*" symbols): 0 to 25%
21 | Cc1cccc(C(=O)Nc2cccc3c(=O)n(CC(C)O)ccc23)c1 (stereo not drawn) [Compound 144] | 0 to 25 | – | –
22 | COc1ccc2c(=O)n([C@H](C)C(N)=O)ccc2c1NC(=O)Cc1ccc(C(F)(F)F)cc1 [Compound 344, (R)-2-{6-Methoxy-1-oxo-5-[2-(4-trifluoromethyl-phenyl)-acetylamino]-1H-isoquinolin-2-yl}-propionamide] | – | > 76 | –
23 | O=C(Nc1cccc2c(=O)n(CCO)ccc12)c1ccc(C(F)(F)F)cc1C(F)(F)F [Compound 6] | – | – | inhibition at 0.3 µM (0.3 μM compound (symbols +)): 26 to 50%
24 | COc1ccc(CCC(=O)Nc2cccc3c(=O)n(CC(C)O)ccc23)cc1 (stereo not drawn) [Compound 150] | 26 to 50 | – | –
25 | CC(C)(O)Cn1ccc2c(NC(=O)Cc3ccccc3Cl)cccc2c1=O [Compound 208] | – | – | inhibition at 0.1 µM (0.1 μM compound, "*" symbols): 0 to 25%
26 | O=C(Nc1cccc2c(=O)n(CC3(O)CCCCC3)ccc12)c1cc2cc(Cl)ccc2o1 [Compound 54] | – | – | inhibition at 0.3 µM (0.3 μM compound (symbols +)): 26 to 50%
27 | O=C(Cc1ccc2c(c1)OCCO2)Nc1cccc2c(=O)n(CCO)ccc12 [Compound 63] | – | – | inhibition at 0.3 µM (0.3 μM compound (symbols +)): 0 to 25%
28 | COc1cc(OC)cc(C(=O)Nc2cccc3c(=O)n(CC(C)O)ccc23)c1 (stereo not drawn) [Compound 143] | 0 to 25 | – | –
29 | O=C(Cc1ccc(Cl)cc1Cl)Nc1cccc2c(=O)n(C(CO)CO)ccc12 [Compound 82] | – | – | inhibition at 0.3 µM (0.3 μM compound (symbols +)): 51 to 75%
30 | CCC(C(=O)Nc1cccc2c(=O)n(CCO)ccc12)c1ccccc1 (stereo not drawn) [Compound 74] | – | – | inhibition at 0.3 µM (0.3 μM compound (symbols +)): 0 to 25%
31 | O=C(CCc1cc(C(F)(F)F)cc(C(F)(F)F)c1)Nc1cccc2c(=O)n(CCO)ccc12 [Compound 61] | – | – | inhibition at 0.3 µM (0.3 μM compound (symbols +)): 0 to 25%
32 | Cc1cc(C(=O)Nc2cccc3c(=O)n(CC(C)(C)O)ccc23)ccc1Cl [Compound 196] | 0 to 25 | – | –
33 | O=C(Cc1cccc2ccccc12)Nc1cccc2c(=O)n(CC3(O)CCCCC3)ccc12 [Compound 26] | – | – | inhibition at 0.3 µM (0.3 μM compound (symbols +)): 0 to 25%
34 | COc1ccc(C(=O)Nc2cccc3c(=O)n(CC(C)O)ccc23)cc1Cl (stereo not drawn) [Compound 131] | 0 to 25 | – | –
35 | COc1ccc(C(=O)Nc2cccc3c(=O)n(CC(C)(C)O)ccc23)cc1Cl [Compound 192] | 0 to 25 | – | –
36 | CC(C)(CO)n1ccc2c(NC(=O)Cc3ccc(C(F)(F)F)cc3)cccc2c1=O [Compound 363] | – | 51 to 75 | –
37 | CC(C)(CO)n1ccc2c(NC(=O)Cc3cccc(C(F)(F)F)c3F)cccc2c1=O [Compound 368] | – | > 76 | –
38 | Cc1ccc(C)c(CC(=O)Nc2cccc3c(=O)n(CC(C)O)ccc23)c1 (stereo not drawn) [Compound 130] | 26 to 50 | – | –

Row | SMILES | inhibition at 0.1 µM (0.1 μM compound (symbols *)) [%] | inhibition at 0.3 µM (0.3 μM compound, "+" symbols) [%] | also measured
39 | CC(O)Cn1ccc2c(NC(=O)c3ccc(-c4ccccc4)cc3)cccc2c1=O (stereo not drawn) [Compound 146] | 0 to 25 | – | –
40 | COc1cc(CC(=O)Nc2cccc3c(=O)n(CC(C)(C)O)ccc23)cc(OC)c1 [Compound 219] | – | – | inhibition at 0.1 µM (0.1 μM compound, "*" symbols): 0 to 25%
41 | O=C(Cc1ccc2c(c1)OCO2)Nc1cccc2c(=O)n(CC3(O)CCCCC3)ccc12 [Compound 38] | – | – | inhibition at 0.3 µM (0.3 μM compound (symbols +)): 0 to 25%
42 | CC(C)(O)Cn1ccc2c(NC(=O)c3cc(Cl)ccc3Cl)cccc2c1=O [Compound 199] | – | – | inhibition at 0.1 µM (0.1 μM compound, "*" symbols): 0 to 25%
43 | COc1ccc(CC(=O)Nc2cccc3c(=O)n(CC(C)O)ccc23)c(OC)c1 (stereo not drawn) [Compound 174] | 0 to 25 | – | –
44 | CC(O)Cn1ccc2c(NC(=O)CCc3ccc4c(c3)OCO4)cccc2c1=O (stereo not drawn) [Compound 134] | 0 to 25 | – | –
45 | CC(C(=O)Nc1cccc2c(=O)n(CCO)ccc12)c1ccc(Cl)cc1 (stereo not drawn) [Compound 244] | – | 26 to 50 | –
46 | O=C(Cc1cc(Cl)ccc1C(F)(F)F)Nc1cccc2c(=O)n(CCO)ccc12 [Compound 68] | – | – | inhibition at 0.3 µM (0.3 μM compound (symbols +)): 26 to 50%
47 | CC(O)Cn1ccc2c(NC(=O)c3ccccc3Cl)cccc2c1=O (stereo not drawn) [Compound 136] | 0 to 25 | – | –
48 | Cc1cccc(C(=O)Nc2cccc3c(=O)n(CC4(O)CCCCC4)ccc23)c1Cl [Compound 55] | – | – | inhibition at 0.3 µM (0.3 μM compound (symbols +)): 0 to 25%
49 | Cc1cc(C(=O)Nc2cccc3c(=O)n(CC(C)O)ccc23)ccc1F (stereo not drawn) [Compound 175] | 0 to 25 | – | –
50 | O=C(Cc1ccc(Cl)c(Cl)c1)Nc1c(Cl)ccc2c(=O)n(CCO)ccc12 [Compound 248] | – | 0 to 25 | –
51 | CCOc1ccc(CC(=O)Nc2cccc3c(=O)n(CC4(O)CCCCC4)ccc23)cc1 [Compound 34] | – | – | inhibition at 0.3 µM (0.3 μM compound (symbols +)): 0 to 25%
52 | Cc1ccccc1C(=O)Nc1cccc2c(=O)n(CC(C)O)ccc12 (stereo not drawn) [Compound 139] | 26 to 50 | – | –
53 | O=C(Cc1ccccc1Cl)Nc1cccc2c(=O)n(CC3(O)CCCCC3)ccc12 [Compound 88] | 0 to 25 | – | –
54 | O=C(Cc1cccc(C(F)(F)F)c1F)Nc1c(Cl)ccc2c(=O)n(CCO)ccc12 [Compound 387] | – | > 76 | –
55 | O=C(Nc1cccc2c(=O)n(CCO)ccc12)c1ccccc1 [Compound 1] | – | – | inhibition at 0.3 µM (0.3 μM compound (symbols +)): 0 to 25%
56 | CNC(=O)[C@@H](C(C)C)n1ccc2c(NC(=O)[C@@H](C)c3ccc(Cl)cc3)cccc2c1=O [Compound 276, (R)-2-{5-[(S)-2-(4-Chloro-phenyl)-propionylamino]-1-oxo-1H-isoquinolin-2-yl}-3,N-dimethyl-butyramide] | – | > 76 | –
57 | CC(C(=O)Nc1cccc2c(=O)n([C@@H](C)C(N)=O)ccc12)c1ccc(Cl)c(C(F)(F)F)c1 (stereo partly drawn) [Compound 356] | – | > 76 | –
